Drawing on patent publication US20220168309A1 (F-STAR THERAPEUTICS, INC., priority 2019, published 2022), this text covers IC50 for 38 compounds.

STING, sequence (Q86WV6 whole entry): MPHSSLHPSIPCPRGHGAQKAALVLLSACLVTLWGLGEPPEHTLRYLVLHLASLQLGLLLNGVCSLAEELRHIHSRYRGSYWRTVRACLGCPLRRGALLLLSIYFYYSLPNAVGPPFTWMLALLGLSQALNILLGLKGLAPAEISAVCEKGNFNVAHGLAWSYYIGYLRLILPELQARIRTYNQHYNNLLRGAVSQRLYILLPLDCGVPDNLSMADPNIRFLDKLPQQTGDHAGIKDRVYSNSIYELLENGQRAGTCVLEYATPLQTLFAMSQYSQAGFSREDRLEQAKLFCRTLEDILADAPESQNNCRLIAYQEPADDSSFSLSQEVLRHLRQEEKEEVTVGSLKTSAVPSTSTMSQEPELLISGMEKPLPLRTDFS

The assay concerns the target STING (Homo sapiens, UniProt Q86WV6). Description: STING antagonist activity, cell-based ISG54 promoter-reporter luciferase measurement of IRF activity (THP-1 dual / RAW-ISG cells). To be noted: Antagonist Activity of Exemplary Compounds; cell line and agonist not given; read-out: IC50. The method, then: THP-1 dual cells (InvivoGen) were cultured under 5% CO2 at 37° C. in RPMI containing 10% fetal bovine serum (FBS), 100 IU mL-1 penicillin and 100 μg mL-1 streptomycin. RAW-ISG cells (InvivoGen) were cultured under 5% CO2 at 37° C. in DMEM containing 10% fetal bovine serum (FBS), 100 IU mL-1 penicillin and 100 μg mL-1 streptomycin. THP-1 dual cells were seeded into the 96 well assay plate on the day of assay whereas RAW cells were seeded into the 96 well assay plate 18 hours before the assay.
50,000 cells seeded in a 96-well flat bottom white assay plate were treated with different concentrations (10 uM to 0.01 uM) of compounds for 1 h followed by STING induction with either 30 nM SB 11285 or 10 ug/mL 2′-3′ cGAMP. The cells were then incubated for 20 hours @ 37° C. in CO2 incubator before measuring IRF activation by using Quanti-Luc (InvivoGen). The % inhibition was calculated as 100−{[(luminescence of COI treated well/luminescence of non-COI treated well)/100]×100}. IC50 was calculated by plotting in Xlfit.
50,000 cells seeded in a 96-well flat bottom white assay plate were treated with different concentrations (10 uM to 0.01 uM) of compounds for 1 h followed by STING induction with either 1 μM SB 11285 or 10 ug/mL 2′-3′ cGAMP. The cells were then incubated for 20 hours @ 37° C. in CO2 incubator before measuring IRF activation by using Quanti-Luc (InvivoGen). The % inhibition was calculated as 100−{[(luminescence of COI treated well/luminescence of non-COI treated well)/100]×100}. IC50 was calculated by plotting in Xlfit.
THP1-Dual-WT cells (InvivoGen) were plated into 96-well flat bottom plate at 5×10^4 cells/140 μL/well in triplicate. Cells were then treated with diluted antagonist compounds at 10 μL/well for 1 h, followed by treatment with compounds or 2′3′-cGAMP/lipo mixture for 18 h. The levels of IRF activity were determined using Quanti-luc (InvivoGen) and calculated against IRF activity in DMSO-treated cells. IC50 and CC50 values were calculated using Xlfit.
What is called IC50 is the concentration needed to halve the response being measured. With `CCCCCCCCCCCCCCC(C(=O)OCc1ccc(OC)cc1)n1cnc2c(Cl)nc(Cl)nc21` (centres unmarked) [Compound 15, 4-methoxybenzyl 2-(2,6-dichloro-9H-purin-9-yl)hexadecanoate], the IC50 is greater than 20000 nM.
With `Cc1nc2nc(Cl)nc(S(=O)(=O)CCO)c2n1CCCCCCCCCCCCCCCC(=O)OC(C)C` [Compound 146, isopropyl 16-(2-chloro-6-((2-hydroxyethyl)sulfonyl)-8-methyl-7H-purin-7-yl)hexadecanoate] the figure was 1 to 1000 nM; with `COC(=O)CCCCCCCCCCCCCCCn1c(C)nc2nc(C#N)nc(C#N)c21` [Compound 126, Methyl 16-(2,6-dicyano-8-methyl-7H-purin-7-yl)hexadecanoate], greater than 20000 nM; with `Cc1nc2nc(Cl)nc(Cl)c2n1CCCCCCCCCCN1CCOCC1` [Compound 102, 4-(10-(2,6-dichloro-8-methyl-7H-purin-7-yl)decyl)morpholine], 1 to 1000 nM.
As to `COC(=O)CCCCCCCCCn1c(C)nc2nc(Cl)nc(S(=O)(=O)C(C)C)c21` [Compound 125, Methyl 10-(2-chloro-6-(isopropylsulfonyl)-8-methyl-7H-purin-7-yl)decanoate], the half-maximal inhibitory concentration (IC50) was in the range of 1000 to 5000 nM.
With `CCOC(=O)Cn1cnc2nc(Cl)nc(Cl)c21` [Compound 8] the figure was 1 to 1000 nM; with `Cc1nc2nc(Cl)nc(SC(C)C)c2n1CCCCCCCCCC[N+]1([O-])CCOCC1` [Compound 129, 4-(10-(2-chloro-6-(isopropylthio)-8-methyl-7H-purin-7-yl)decyl)morpholine 4-oxide], greater than 20000 nM.
For the compound `COC(=O)CCCCCCCCCCCCCCCn1cnc2c(NCCS(N)(=O)=O)nc(Cl)nc21` [Compound 21], the IC50 fell in the range of 10000 to 20000 nM.
As for `Cc1nc2nc(Cl)nc(S(=O)(=O)C(C)C)c2n1CCCCCCCCCCCCCCCC(=O)N(C)C` [Compound 150, 16-(2-chloro-6-(isopropylsulfonyl)-8-methyl-7H-purin-7-yl)-N,N-dimethylhexadecanamide], the 50% inhibitory concentration (IC50) was in the range of 1 to 1000 nM.
With `COC(=O)CCCCCCCCCCCCCCCn1c(C)nc2nc(Cl)nc([S+]([O-])C(C)C)c21` (centres unmarked) [Compound 128, methyl 16-(2-chloro-6-(isopropylsulfinyl)-8-methyl-7H-purin-7-yl)hexadecanoate] the figure was 1 to 1000 nM; with `COC(=O)Cn1c(C)nc2nc(Cl)nc(Cl)c21` [Compound 66, methyl 2-(2,6-dichloro-8-methyl-7H-purin-7-yl)acetate], 1000 to 5000 nM; with `COC(=O)CCCCCCCCCCCCCCCn1c(C)nc2nc(Cl)nc(S(=O)(=O)CCN)c21` [Compound 147, methyl 16-(6-((2-aminoethyl)sulfonyl)-2-chloro-8-methyl-7H-purin-7-yl)hexadecanoate], 1000 to 5000 nM.
With `CCCCCCCCCCCCCCCCn1c(C)nc2nc(Cl)nc(S(=O)(=O)C(C)C)c21` [Compound 97, 2-chloro-7-hexadecyl-6-(isopropylsulfonyl)-8-methyl-7H-purine] the figure was 1 to 1000 nM; with `COC(=O)CCCCCCCCCCCCCCCn1cnc2nc(Cl)nc(N)c21` [Compound 9, methyl (6-amino-2-chloro-7H-purin-7-yl)hexadecanoate], 1000 to 5000 nM; with `COC(=O)CCCCCCCCCCCCCCCn1cnc2nc(Cl)nc(O)c21` [Compound 11, methyl 16-(2-chloro-6-hydroxy-7H-purin-7-yl)hexadecanoate], 10000 to 20000 nM.
With `O=P(O)(O)OCCCCCCCCCCCCCCCCn1cnc2nc(Cl)nc(Cl)c21` [Compound 88, 16-(2,6-dichloro-7H-purin-7-yl)hexadecyl dihydrogen phosphate] the figure was greater than 20000 nM; with `Clc1nc(Cl)c2c(ncn2C/C=C/Cn2cnc3nc(Cl)nc(Cl)c32)n1` [Compound 54, (E)-1,4-bis(2,6-dichloro-7H-purin-7-yl)but-2-ene], 1000 to 5000 nM.
For the compound `CCCCCCCCCCCCCCCCn1c(CO)nc2nc(Cl)nc(Cl)c21` [Compound 119, (2,6-dichloro-7-hexadecyl-7H-purin-8-yl)methanol], the IC50 is 1 to 1000 nM.
With `Cc1nc2nc(Cl)nc(S(C)(=O)=O)c2n1CCCCCCCCCCCCCCCC(=O)OC(C)C` [Compound 109, isopropyl 16-(2-chloro-8-methyl-6-(methylsulfonyl)-7H-purin-7-yl)hexadecanoate] the figure was 1 to 1000 nM; with `OCCCCCCCCCCCCCCCCn1cnc2nc(Cl)nc(Cl)c21` [Compound 25, 16-(2,6-dichloro-7H-purin-7-yl)hexadecan-1-ol], 1 to 1000 nM; with `CC1Nc2nc(Cl)nc(S(=O)(=O)C(C)C)c2N1CCCCCCCCCCCCCCCCO` (centres unmarked) [Compound 112, 16-(2-chloro-6-(isopropylsulfonyl)-8-methyl-8,9-dihydro-7H-purin-7-yl)hexadecan-1-ol], 1000 to 5000 nM.
With `Cc1nc2nc(Cl)nc(S(=O)(=O)C(C)C)c2n1CCCCCCCCCCCCCCCC(=O)OC[C@H](O)CO` [Compound 133, (R)-2,3-dihydroxypropyl 16-(2-chloro-6-(isopropylsulfonyl)-8-methyl-7H-purin-7-yl)hexadecanoate], the concentration for half-maximal inhibition (IC50) is 1000 to 5000 nM.
With `COC(=O)CCCCCCCCCCCCCCCn1cnc2ccnc(Cl)c21` [Compound 43] the figure was greater than 20000 nM.
With `Cc1nc2nc(Cl)nc(Cl)c2n1CCCCCCCCCCCCCCCC(=O)N1CCNCC1` [Compound 87, 16-(2,6-dichloro-8-methyl-7H-purin-7-yl)-1-(piperazin-1-yl)hexadecan-1-one] the figure was 10000 to 20000 nM; with `Clc1nc(Cl)c2c(ncn2C/C=C\Cn2cnc3nc(Cl)nc(Cl)c32)n1` [Compound 58, (Z)-1,4-bis(2,6-dichloro-7H-purin-7-yl)but-2-ene], greater than 20000 nM.
Turning to `CCOCCOCCOC(=O)CCCCCCCCCCCCCCCn1c(C)nc2nc(Cl)nc(Cl)c21` [Compound 99, 2-(2-ethoxyethoxy)ethyl 16-(2,6-dichloro-8-methyl-7H-purin-7-yl)hexadecanoate], the IC50 lay within 1000 to 5000 nM.
As for `Cc1nc2nc(Cl)nc(Cl)c2n1CCCCCCCCCCCCCCCC(=O)OCCO` [Compound 84, 2-hydroxyethyl 16-(2,6-dichloro-8-methyl-7H-purin-7-yl)hexadecanoate], the half-maximal inhibitory concentration (IC50) fell in the range of 1000 to 5000 nM.
With `Cc1nc2nc(Cl)nc(Cl)c2n1CCCCCCCCCCCCCCCC(=O)OC(C)(C)C` [Compound 81, tert-butyl 16-(2,6-dichloro-8-methyl-7H-purin-7-yl)hexadecanoate] the figure was 1000 to 5000 nM; with `COC(=O)CCCCCCCCCCCCCCn1c(C)nc2nc(Cl)nc(S(=O)(=O)C(C)C)c21` [Compound 162, Methyl 15-(2-chloro-6-(isopropylsulfonyl)-8-methyl-7H-purin-7-yl)pentadecanoate], 1 to 1000 nM.
With `CCCCCCCCC(C(=O)OCC)n1cnc2nc(Cl)nc(Cl)c21` (centres unmarked) [Compound 36, ethyl 2-(2,6-dichloro-7H-purin-7-yl) decanoate] the figure was 1000 to 5000 nM; with `COC(=O)CCCCCCCCCCCCCCCn1cnc2nc(Cl)nc(N(C)C)c21` [Compound 24, methyl 16-(2-chloro-6-(dimethylamino)-7H-purin-7-yl)hexadecanoate], 1000 to 5000 nM.
With `Cc1nc2nc(Cl)nc(Cl)c2n1CCCCCCCCCCCCCCCC(=O)OCC(C)O` (centres unmarked) [Compound 98, 2-hydroxypropyl 16-(2,6-dichloro-8-methyl-7H-purin-7-yl)hexadecanoate] the figure was 1000 to 5000 nM; with `Cc1nc2nc(Cl)nc(S(=O)(=O)C(C)C)c2n1CCCCCCCCCCCCCCCC(=O)O` [Compound 139, 16-(2-chloro-6-(isopropylsulfonyl)-8-methyl-7H-purin-7-yl)hexadecanoic acid], 1 to 1000 nM; with `Cc1nc2nc(Cl)nc(S(=O)(=O)C(C)C)c2n1CCCCCCCCCCCCCCCCO` [Compound 111, 16-(2-chloro-6-(isopropylsulfonyl)-8-methyl-7H-purin-7-yl)hexadecan-1-ol], 1 to 1000 nM.
With `CC(=O)NCCCCCCCCCCCCCCCCn1c(C)nc2nc(Cl)nc(Cl)c21` [Compound 166, N-(16-(2,6-dichloro-8-methyl-7H-purin-7-yl)hexadecyl)acetamide], the half-maximal inhibitory concentration (IC50) is 1 to 1000 nM.
With `CC(=O)N1CCC(Cn2cnc3nc(Cl)nc(Cl)c32)CC1` [Compound 68, 1-(4-((2,6-dichloro-7H-purin-7-yl)methyl)piperidin-1-yl)ethan-1-one] the figure was 5000 to 10000 nM; with `COC(=O)CCCCCCCCCCCCCCCn1cnc2c(Cl)nccc21` [Compound 44], greater than 20000 nM; with `COC(=O)CCCCCCCCCn1c(C)nc2nc(Cl)nc([S+]([O-])C(C)C)c21` (centres unmarked) [Compound 124, methyl 10-(2-chloro-6-(isopropylsulfinyl)-8-methyl-7H-purin-7-yl)decanoate], 1 to 1000 nM.
